Active and inactive are the calls of the source. No cut-off for these calls is given here.
How the values were obtained:
[1] = target: Sodium-dependent dopamine transporter (Homo sapiens, UniProt Q01959); assay: Displacement of radioligand from human recombinant DAT expressed in HEK293 cells by scintillation proximity assay; format: cell-based
Cytochrome P450 3A4 [2] = target: T1, Cytochrome P450 3A4 (Homo sapiens, UniProt P08684); assay: Inhibition of CYP3A4 using felodipine as substrate; format: ADME
[3] = Intrinsic clearance in human liver microsomes; format: ADME, Microsome
hERG (KCNH2) = hERG (KCNH2) (Homo sapiens, UniProt Q12809); assay: Displacement of [3H]dofetilide from human ERG at 10 uM; settings: probe [3H]dofetilide
Cytochrome P450 3A4 [4] = target: T1, Cytochrome P450 3A4; assay: Inhibition of CYP3A4 using testosterone as substrate; format: ADME
[5] = target: Sodium channel protein type 5 subunit alpha (Homo sapiens, UniProt Q14524); assay: Blockade of Nav1.5 sodium channel
[6] = target: Sodium-dependent serotonin transporter (Homo sapiens, UniProt P31645); assay: Displacement of [3H]citalopram from human recombinant SERT expressed in HEK293 cells by scintillation proximity assay; format: cell-based
[7] = Binding affinity to sodium channel site 2
Cytochrome P450 1A2 = target: T2, Cytochrome P450 1A2 (Homo sapiens, UniProt P05177); assay: Inhibition of CYP1A2; format: ADME
T2 sequence (P05177 whole entry): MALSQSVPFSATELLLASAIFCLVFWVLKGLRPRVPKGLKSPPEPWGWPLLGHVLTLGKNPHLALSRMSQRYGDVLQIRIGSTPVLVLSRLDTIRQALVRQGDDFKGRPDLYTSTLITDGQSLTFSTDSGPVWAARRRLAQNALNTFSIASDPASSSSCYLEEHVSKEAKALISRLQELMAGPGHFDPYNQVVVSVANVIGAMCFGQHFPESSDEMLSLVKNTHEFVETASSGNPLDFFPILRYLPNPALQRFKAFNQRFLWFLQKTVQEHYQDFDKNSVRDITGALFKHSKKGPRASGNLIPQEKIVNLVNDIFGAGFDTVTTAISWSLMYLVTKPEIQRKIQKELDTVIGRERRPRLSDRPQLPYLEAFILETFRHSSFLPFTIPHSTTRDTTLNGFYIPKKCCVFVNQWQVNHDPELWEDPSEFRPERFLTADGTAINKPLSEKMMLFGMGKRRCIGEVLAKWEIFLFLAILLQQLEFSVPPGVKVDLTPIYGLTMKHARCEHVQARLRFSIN

Cytochrome P450 2D6 = Cytochrome P450 2D6 (Homo sapiens, UniProt P10635); assay: Inhibition of CYP2D6; format: ADME
[8] = Dissociation constant, pKa of the compound; format: physicochemical
Cytochrome P450 3A4 [9] = target: T1, Cytochrome P450 3A4; assay: Inhibition of CYP3A4 using midazolam as substrate; format: ADME
[10] = target: T3, Muscarinic acetylcholine receptor M5 (Homo sapiens, UniProt P08912); assay: Binding affinity to human muscarinic M5 receptor
T3 sequence (P08912 whole entry): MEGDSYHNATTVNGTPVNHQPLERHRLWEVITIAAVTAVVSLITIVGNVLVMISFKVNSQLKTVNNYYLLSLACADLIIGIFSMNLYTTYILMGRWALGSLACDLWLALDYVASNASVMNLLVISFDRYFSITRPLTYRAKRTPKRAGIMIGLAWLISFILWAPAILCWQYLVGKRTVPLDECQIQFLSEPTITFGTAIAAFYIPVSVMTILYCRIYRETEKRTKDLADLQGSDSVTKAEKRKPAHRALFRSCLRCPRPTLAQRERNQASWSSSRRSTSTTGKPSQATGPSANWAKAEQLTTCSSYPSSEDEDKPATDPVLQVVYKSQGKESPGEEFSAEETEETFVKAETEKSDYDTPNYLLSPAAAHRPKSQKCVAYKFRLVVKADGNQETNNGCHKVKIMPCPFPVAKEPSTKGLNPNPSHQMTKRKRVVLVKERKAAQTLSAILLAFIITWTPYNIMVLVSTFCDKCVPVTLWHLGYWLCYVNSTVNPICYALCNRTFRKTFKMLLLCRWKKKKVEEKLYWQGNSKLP

MDR1 (P-gp) [11] = assay: Efflux ratio of permeability from […] in MDCK cells expressing MDR1 at 10 uM; format: ADME, cell-based, Canis lupus familiaris; settings: dog
Rattus norvegicus [12] = assay: Ex vivo NET occupancy in rat neocortical tissue at 3 mg/kg, sc after 1 hr by [3H]nisoxetine binding assay; format: functional; settings: route subcutaneous
[13] = target: T4, Muscarinic acetylcholine receptor M5 (Homo sapiens) (UniProt P08912); assay: Binding affinity to human muscarinic M5 receptor at 10 uM
T4 sequence (whole entry): T3 sequence (P08912 whole entry)

Rattus norvegicus [14] = assay: Effect on dihydroxyphenylacetic acid level in rat prefrontal cortex up to 3.2 mg/kg, sc by microdialysis method; format: functional, organism-based; design: dose 3.2 mg/kg
[15] = target: T5, Muscarinic acetylcholine receptor M4 (Homo sapiens) (UniProt P08173); assay: Binding affinity to human muscarinic M4 receptor at 10 uM
T5 sequence (whole entry): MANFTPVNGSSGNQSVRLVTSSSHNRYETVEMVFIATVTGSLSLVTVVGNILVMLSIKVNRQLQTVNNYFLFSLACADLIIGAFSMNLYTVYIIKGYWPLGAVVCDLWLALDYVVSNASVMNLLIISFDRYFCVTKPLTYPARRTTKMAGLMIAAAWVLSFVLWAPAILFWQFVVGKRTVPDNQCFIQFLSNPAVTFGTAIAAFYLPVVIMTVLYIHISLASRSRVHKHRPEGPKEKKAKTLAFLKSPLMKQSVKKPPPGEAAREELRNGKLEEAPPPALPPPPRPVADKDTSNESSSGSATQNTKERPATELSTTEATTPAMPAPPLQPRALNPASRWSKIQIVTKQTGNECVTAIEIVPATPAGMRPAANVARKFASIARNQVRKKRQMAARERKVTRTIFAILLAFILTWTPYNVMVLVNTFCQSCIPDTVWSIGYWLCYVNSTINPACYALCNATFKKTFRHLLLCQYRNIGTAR

Cytochrome P450 2C19 = Cytochrome P450 2C19 (Homo sapiens, UniProt P33261); assay: Inhibition of CYP2C19; format: ADME
[16] = target: Voltage-gated inwardly rectifying potassium channel KCNH2 (Homo sapiens, UniProt Q12809); assay: Displacement of [3H]dofetilide from human ERG
Cytochrome P450 2C9 = Cytochrome P450 2C9 (Homo sapiens, UniProt P11712); assay: Inhibition of CYP2C9; format: ADME
[17] = target: T6, Muscarinic acetylcholine receptor M4 (Homo sapiens, UniProt P08173); assay: Binding affinity to human muscarinic M4 receptor
T6 sequence (P08173 whole entry): T5 sequence (whole entry)

Rattus norvegicus [18] = assay: Effect on 5-hydroxyindoleacetic acid level in rat prefrontal cortex up to 3.2 mg/kg, sc by microdialysis method; format: functional, organism-based; design: dose 3.2 mg/kg
MDR1 (P-gp) [19] = assay: Apparent permeability from apical to basolateral side of MDCK cells expressing MDR1 at 10 uM; format: ADME, cell-based, Canis lupus familiaris; settings: dog
MDR1 (P-gp) [20] = assay: Apparent permeability from basolateral to apical side of MDCK cells expressing MDR1 at 10 uM; format: ADME, cell-based, Canis lupus familiaris; settings: dog
[21] = Apparent permeability from apical to basolateral side of human Caco-2 cells at 10 uM; format: ADME, cell-based
Rattus norvegicus [22] = assay: Increase in noradrenaline level in interstitial fluid of rat prefrontal cortex at 0.3 to 3.2 mg/kg, sc by microdialysis method relative to baseline level; format: functional; settings: dose mg/kg 0.3-3.2; route subcutaneous
[23] = Apparent permeability from basolateral to apical side of human Caco-2 cells at 10 uM; format: ADME, cell-based
Transporter = Transporter (Rattus norvegicus, UniProt Q63380); assay: Binding affinity to rat NET expressed in HEK293 cells; format: cell-based
[24] = target: Sodium-dependent noradrenaline transporter (Homo sapiens, UniProt P23975); assay: Displacement of [3H]nisoxetine from human recombinant NET expressed in HEK293 cells by scintillation proximity assay; format: cell-based

T1 sequence (P08684 whole entry): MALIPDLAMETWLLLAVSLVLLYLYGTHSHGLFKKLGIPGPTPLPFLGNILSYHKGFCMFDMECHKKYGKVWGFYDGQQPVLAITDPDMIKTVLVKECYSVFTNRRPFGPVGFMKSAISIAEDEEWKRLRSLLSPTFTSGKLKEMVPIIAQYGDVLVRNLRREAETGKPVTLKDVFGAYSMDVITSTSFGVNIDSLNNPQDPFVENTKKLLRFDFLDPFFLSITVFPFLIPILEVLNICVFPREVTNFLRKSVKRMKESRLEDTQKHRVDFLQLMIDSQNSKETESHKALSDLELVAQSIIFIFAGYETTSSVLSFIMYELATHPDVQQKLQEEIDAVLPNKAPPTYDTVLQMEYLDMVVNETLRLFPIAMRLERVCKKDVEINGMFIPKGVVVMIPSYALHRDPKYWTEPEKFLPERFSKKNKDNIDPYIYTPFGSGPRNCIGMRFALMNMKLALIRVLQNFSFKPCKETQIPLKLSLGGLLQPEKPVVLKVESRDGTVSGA
Cytochrome P450 2C9, sequence (P11712 whole entry): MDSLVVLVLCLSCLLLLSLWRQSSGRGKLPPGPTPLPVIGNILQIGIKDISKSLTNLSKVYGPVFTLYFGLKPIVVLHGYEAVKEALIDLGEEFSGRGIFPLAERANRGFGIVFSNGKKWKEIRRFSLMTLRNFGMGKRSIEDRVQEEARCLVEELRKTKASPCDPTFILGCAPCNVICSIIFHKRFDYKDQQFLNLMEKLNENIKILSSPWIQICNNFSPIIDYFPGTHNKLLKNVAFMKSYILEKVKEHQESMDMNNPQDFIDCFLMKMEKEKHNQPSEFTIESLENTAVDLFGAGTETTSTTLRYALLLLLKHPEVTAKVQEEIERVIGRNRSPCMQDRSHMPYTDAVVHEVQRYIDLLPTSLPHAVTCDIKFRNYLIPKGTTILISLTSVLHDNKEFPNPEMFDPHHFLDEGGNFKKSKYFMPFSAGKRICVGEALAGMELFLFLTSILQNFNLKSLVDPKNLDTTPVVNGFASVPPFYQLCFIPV
Cytochrome P450 2C19, sequence (P33261 whole entry): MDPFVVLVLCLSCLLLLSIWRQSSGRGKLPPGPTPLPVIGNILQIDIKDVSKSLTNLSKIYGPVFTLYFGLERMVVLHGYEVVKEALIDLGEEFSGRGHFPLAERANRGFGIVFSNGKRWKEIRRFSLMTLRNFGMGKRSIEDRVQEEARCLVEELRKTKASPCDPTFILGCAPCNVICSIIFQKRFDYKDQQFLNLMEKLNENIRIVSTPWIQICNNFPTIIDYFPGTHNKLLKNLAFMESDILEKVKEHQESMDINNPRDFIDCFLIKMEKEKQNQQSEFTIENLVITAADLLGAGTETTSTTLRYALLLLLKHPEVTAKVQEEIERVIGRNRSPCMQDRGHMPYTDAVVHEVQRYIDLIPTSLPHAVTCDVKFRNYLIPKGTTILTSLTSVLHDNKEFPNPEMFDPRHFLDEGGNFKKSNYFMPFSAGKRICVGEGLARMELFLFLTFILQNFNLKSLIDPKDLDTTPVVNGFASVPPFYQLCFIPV
Cytochrome P450 2D6, sequence (P10635 whole entry): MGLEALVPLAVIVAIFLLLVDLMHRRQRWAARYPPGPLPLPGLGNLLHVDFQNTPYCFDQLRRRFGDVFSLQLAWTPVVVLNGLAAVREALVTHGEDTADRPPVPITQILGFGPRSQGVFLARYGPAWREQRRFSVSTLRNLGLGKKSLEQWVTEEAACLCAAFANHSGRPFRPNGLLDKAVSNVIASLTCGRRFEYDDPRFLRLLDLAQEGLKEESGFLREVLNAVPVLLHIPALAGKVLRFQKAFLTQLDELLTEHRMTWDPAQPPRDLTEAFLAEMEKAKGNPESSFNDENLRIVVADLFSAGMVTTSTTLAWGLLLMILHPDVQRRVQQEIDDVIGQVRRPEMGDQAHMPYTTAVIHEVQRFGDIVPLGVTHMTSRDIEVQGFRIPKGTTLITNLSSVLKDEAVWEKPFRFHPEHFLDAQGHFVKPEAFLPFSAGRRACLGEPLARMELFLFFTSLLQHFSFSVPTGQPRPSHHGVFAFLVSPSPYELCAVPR
Transporter, sequence (Q63380 whole entry): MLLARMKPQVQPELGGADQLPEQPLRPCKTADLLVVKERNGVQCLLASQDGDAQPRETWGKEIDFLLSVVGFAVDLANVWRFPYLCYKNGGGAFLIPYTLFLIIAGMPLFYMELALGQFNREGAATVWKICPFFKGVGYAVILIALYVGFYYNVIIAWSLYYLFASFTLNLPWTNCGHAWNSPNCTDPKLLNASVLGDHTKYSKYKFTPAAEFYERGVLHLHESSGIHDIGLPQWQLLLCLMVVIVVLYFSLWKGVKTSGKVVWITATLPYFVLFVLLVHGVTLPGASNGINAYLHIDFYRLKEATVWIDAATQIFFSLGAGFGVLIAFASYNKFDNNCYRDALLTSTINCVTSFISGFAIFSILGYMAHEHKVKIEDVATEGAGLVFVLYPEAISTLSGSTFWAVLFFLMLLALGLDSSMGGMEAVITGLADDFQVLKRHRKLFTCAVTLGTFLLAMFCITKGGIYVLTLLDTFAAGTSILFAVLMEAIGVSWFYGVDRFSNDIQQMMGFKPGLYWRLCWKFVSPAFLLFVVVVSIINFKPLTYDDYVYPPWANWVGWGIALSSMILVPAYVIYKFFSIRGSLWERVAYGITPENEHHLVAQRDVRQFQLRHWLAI
hERG (KCNH2), sequence (Q12809 whole entry): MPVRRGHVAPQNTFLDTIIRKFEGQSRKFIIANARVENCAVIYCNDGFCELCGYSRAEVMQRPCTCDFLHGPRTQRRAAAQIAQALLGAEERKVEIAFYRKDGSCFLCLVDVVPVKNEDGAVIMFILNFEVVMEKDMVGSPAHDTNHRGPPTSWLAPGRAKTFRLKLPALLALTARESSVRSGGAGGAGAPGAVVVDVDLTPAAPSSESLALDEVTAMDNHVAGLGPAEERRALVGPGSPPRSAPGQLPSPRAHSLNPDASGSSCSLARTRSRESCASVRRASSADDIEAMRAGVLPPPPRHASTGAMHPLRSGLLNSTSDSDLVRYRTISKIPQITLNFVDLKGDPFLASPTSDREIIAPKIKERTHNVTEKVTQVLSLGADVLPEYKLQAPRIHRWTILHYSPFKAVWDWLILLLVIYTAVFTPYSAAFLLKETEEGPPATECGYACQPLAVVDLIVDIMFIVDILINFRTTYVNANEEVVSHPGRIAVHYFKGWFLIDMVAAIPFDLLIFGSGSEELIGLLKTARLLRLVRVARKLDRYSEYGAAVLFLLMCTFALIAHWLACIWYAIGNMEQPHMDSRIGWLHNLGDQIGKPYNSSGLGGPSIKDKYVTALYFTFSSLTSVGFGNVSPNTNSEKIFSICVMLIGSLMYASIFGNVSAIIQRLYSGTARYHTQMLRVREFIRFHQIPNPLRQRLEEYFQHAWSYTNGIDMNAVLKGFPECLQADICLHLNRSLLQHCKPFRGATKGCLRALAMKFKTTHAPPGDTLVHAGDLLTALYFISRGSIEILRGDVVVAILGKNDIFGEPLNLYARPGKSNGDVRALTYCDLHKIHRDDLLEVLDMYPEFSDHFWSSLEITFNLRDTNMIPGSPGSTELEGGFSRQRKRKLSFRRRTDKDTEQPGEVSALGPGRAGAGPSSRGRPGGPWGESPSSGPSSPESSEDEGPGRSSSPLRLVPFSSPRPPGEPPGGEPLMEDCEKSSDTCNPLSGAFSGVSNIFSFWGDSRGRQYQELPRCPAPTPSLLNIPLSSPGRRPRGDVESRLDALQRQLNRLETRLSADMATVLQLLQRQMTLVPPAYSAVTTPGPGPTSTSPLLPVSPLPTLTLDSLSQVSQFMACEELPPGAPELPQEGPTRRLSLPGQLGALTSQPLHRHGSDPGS
Voltage-gated inwardly rectifying potassium channel KCNH2, sequence (Q12809 whole entry): as above

In the case of `O=C(c1ccccc1C(F)(F)F)N(CC1CCC1)[C@H]1CCNC1`, the Ki [1] is reported as 2.29 µM, the IC50 (Cytochrome P450 3A4 [2]) is reported as 22 µM and the microsomal CLint [3] is reported as < 7 µL/min/mg. For the same compound, the inhibition at 10 µM (hERG (KCNH2)) was 48%, the IC50 (Cytochrome P450 3A4 [4]) was 31.2 µM and the IC50 [5] was > 26 µM. The Ki [6] was 0.224 µM, the Ki [7] was 3.7 µM and the IC50 (Cytochrome P450 1A2) was > 30 µM. It also gave an IC50 (Cytochrome P450 2D6) of 15.1 µM, a pKa [8] of 9.5 and an IC50 (Cytochrome P450 3A4 [9]) of 12.2 µM. It also gave a Ki [10] of 1.8 µM, an efflux ratio at 10 µM (MDR1 (P-gp) [11]) of 5.2 and an Activity (Rattus norvegicus [12]) of 52%. For the same compound, the inhibition [13] was > 50%, the Activity (Rattus norvegicus [14]) was “inactive” and the inhibition [15] was > 50%. For the same compound, the IC50 (Cytochrome P450 2C19) was > 30 µM, the IC50 [16] was > 20 µM and the IC50 (Cytochrome P450 2C9) was > 30 µM. The Ki [17] was 4.3 µM, the Activity (Rattus norvegicus [18]) was “inactive” and the Papp A→B at 10 µM (MDR1 (P-gp) [19]) was 11 ×10⁻⁶ cm/s. For the same compound, the Papp B→A at 10 µM (MDR1 (P-gp) [20]) was 57 ×10⁻⁶ cm/s, the Papp A→B at 10 µM [21] was 16 ×10⁻⁶ cm/s and the Activity (Rattus norvegicus [22]) was 200%. For the same compound, the Papp B→A at 10 µM [23] was 33 ×10⁻⁶ cm/s, the Ki (Transporter) was 0.0039 µM and the Ki [24] was 0.006 µM.

— ChEMBL document CHEMBL1153484, “Design, synthesis and evaluation of N-[(3S)-pyrrolidin-3-yl]benzamides as selective noradrenaline reuptake inhibitors: CNS penetration in a more polar template” (Bioorg Med Chem Lett, 2009)
